Results as given in patent US7208314B2, “Compositions and methods for drug delivery using pH sensitive molecules” (priority 2002, dated 2007).
Where two headings read alike, the source gives them in different places. Peptide text beside a SMILES is read from it. * marks the point of attachment. X1 = C/C(C(=O)O)=C(\C)C(=O)*

Experiments:
[1] = test system: 3T3 mouse embryonic fibroblast cells; assay: In vitro transfection with DNA-PLL-KL3 and dimethylmaleamic KL3, luciferase expression; format: cell-based
Experimental: To a complex of plasmid DNA pCIluc (10 μg/mL, 0.075 mM in phosphate, 2.6 μg/μL pCIluc; prepared according to Danko, I., Williams, P., Herweijer, H. Zhang, G., Latendresse, J. S., Bock, I., Wolff, J. A. Hum. Mol. Genetics 1997, 6, 1435.) and poly-L-lysine (40 μg/mL) in 0.5 mL of 5 mM HEPES pH 7.5 was added succinylated poly-L-lysine (34,000 MW, Aldrich Chemical), 2,3-dimethylmaleamic melittin and 2,3-dimethylmaleamic KL3. The DNA-poly-L-lysine-2,3-dimethylmaleamic peptide complexes were then added (200 μL) to wells containing 3T3 mouse embryonic fibroblast cells in 290 mM glucose and 5 mM HEPES buffer pH 7.5. After 1.5 h, the glucose media was replaced with Dubelco's modified Eagle Media and the cells were allowed to incubate for 48 h. The cells were then harvested and then assayed for luciferase expression as previously reported (Wolff, J. A., Malone, R. W., Williams, P., Chong, W., Acsadi, G., Jani, A. and Felgner, P. L. Direct gene transfer into mouse muscle in vivo. Science, 1465–1468, 1990.). A Lumat LB 9507 (EG&G Berthold, Bad-Wildbad, Germany) luminometer was used. The amount of transfection was reported in relative light units and is the average transfection for two separate wells of cells.

[2] = Kinetics of conversion of dimethylmaleamic modified amines to amines at pH 5 (trinitrobenzenesulfonate); format: physicochemical; conditions: 40 mM sodium acetate buffer pH 5 and 1 mM cetyltrimetylammonium bromide
Experimental: Dimethyl maleamic modified poly-L-lysine (10 mg/mL) was incubated in 10 mM sodium acetate buffer pH 5. At various times, aliquots (10 μg) were removed and added to 0.5 mL of 100 mM borax solution containing 0.4 mM trinitrobenzenesulfonate. A half an hour later, the absorbance of the solution at 420 nm was measured. To determine the concentration of amines at each time point, the extinction coefficient was determine for the product of trinitrobenzenesulfonate and poly-L-lysine. Using this extinction coefficient we were able to calculate the amount of amines and maleamic groups at each time point. A plot of ln (At/A0) as a function of time was a straight line whose slope is the negative of the rate constant for the conversion of maleamic acid to amine and anhydride, where At is the concentration of maleamic acid at a time t and A0 is the initial concentration of maleamic acid. For two separate experiments we calculated rate constants of […] which correspond to half lives of roughly 10 and 4 minutes respectively.
Dimethyl maleamic modified KL3 (0.1 mg/mL) was incubated in 40 mM sodium acetate buffer pH 5 and 1 mM cetyltrimetylammonium bromide. At various times, aliquots (10 μg) were removed and added to 0.05 mL of 1 M borax solution containing 4 mM trinitrobenzenesulfonate. A half an hour later, the absorbance of the solution at 420 nm was measured. […]

[3] = Hemolysis assay: melittin or KL3 blocked by anionic polymer or dimethylmaleic anhydride; format: cell-based; conditions: pH 7.5, read-out: Percent hemolysis
Experimental: The membrane-disruptive activity of the peptide melittin and subsequent blocking of activity by anionic polymers was measured using a red blood cell (RBC) hemolysis assay. RBCs were harvested by centrifuging whole blood for 4 min. They were washed three times with 100 mM dibasic sodium phosphate at the desired pH, and resuspended in the same buffer to yield the initial volume. They were diluted 10 times in the same buffer, and 200 uL of this suspension was used for each tube. This yields 10 ? 8 RBCs per tube. Each tube contained 800 uL of buffer, 200 uL of the RBC suspension, and the peptide with or without polymer. Each sample was then repeated to verify reproducibility. The tubes were incubated for 30 minutes in a 37 C water bath. They were spun for 5 min at full speed in the microcentifuge. Lysis was determined by measuring the absorbance of the supernatant at 541 nm, reflecting the amount of hemoglobin that had been released into the supernatant. Percent hemolysis was calculated assuming 100% lysis to be measured by the hemoglobin released by the red blood cells in water; controls of RBCs in buffer with no peptide were also run.

[4] = test system: 3T3 mouse embryonic fibroblast cells; assay: In vitro transfection with DNA-PLL complexes with dimethylmaleamic KL3 and dimethylmaleamic KL3-PLL; format: cell-based; conditions: pCIluc DNA/poly-L-lysine complex plus 10 mg modified peptide; opti-MEM 4 h; 48 h
Experimental: To a complex of plasmid DNA pCIluc (10 μg/mL, prepared according to Danko, I., Williams, P., Herweijer, H. Zhang, G., Latendresse, J. S., Bock, I., Wolff, J. A. Hum. Mol. Genetics 1997, 6, 1435.) and poly-L-lysine (40 μg/mL) in 0.5 mL water was added 10 mg of 2,3-dimethylmaleamic -KL3-PLL or 2,3-dimethylmaleamic -KL3. The DNA-poly-L-lysine-2,3-dimethylmaleamic peptide complexes were then added (200 μL) to a well containing 3T3 mouse embryonic fibroblast cells in opti-MEM. After 4 h, the media was replaced with 90% Dubelco's modified Eagle Media and 10% fetal bovine serum the cells were then allowed to incubate for 48 h. The cells were then harvested and then assayed for luciferase expression as previously reported (Wolff, J. A., Malone, R. W., Williams, P., Chong, W., Acsadi, G., Jani, A. and Felgner, P. L. Direct gene transfer into mouse muscle in vivo. Science, 1465–1468, 1990.). A Lumat LB 9507 (EG&G Berthold, Bad-Wildbad, Germany) luminometer was used. The amount of transfection was reported in relative light units and is the average transfection for two separate wells of cells.

In the case of `C/C(C(=O)O)=C(\C)C(=O)NCCCC[C@H](NC(=O)/C(C)=C(/C)C(=O)O)C(=O)N[C@@H](CC(C)C)C(=O)N[C@@H](CC(C)C)C(=O)N[C@@H](CCCCNC(=O)/C(C)=C(/C)C(=O)O)C(=O)N[C@@H](CC(C)C)C(=O)N[C@@H](CC(C)C)C(=O)N[C@@H](CC(C)C)C(=O)N[C@@H](CCCCNC(=O)/C(C)=C(/C)C(=O)O)C(=O)N[C@@H](CC(C)C)C(=O)N[C@@H](Cc1c[nH]c2ccccc12)C(=O)N[C@@H](CC(C)C)C(=O)N[C@@H](CCCCNC(=O)/C(C)=C(/C)C(=O)O)C(=O)N[C@@H](CC(C)C)C(=O)N[C@@H](CC(C)C)C(=O)N[C@@H](CCCCNC(=O)/C(C)=C(/C)C(=O)O)C(=O)N[C@@H](CC(C)C)C(=O)N[C@@H](CC(C)C)C(=O)N[C@@H](CC(C)C)C(=O)N[C@@H](CCCCNC(=O)/C(C)=C(/C)C(=O)O)C(=O)N[C@@H](CC(C)C)C(=O)N[C@@H](CC(C)C)C(=O)O` [2,3-dimethylmaleamic KL3] (X1-K(X1)LLK(X1)LLLK(X1)LWLK(X1)LLK(X1)LLLK(X1)LL-OH; N-terminus and C-terminus assumed), the “Relative Light Units (luciferase expression)” value ([1]; pCIluc DNA/poly-L-lysine complex plus named additive, 48 h, average of two wells) is reported as 49535 Relative Light Units, the “Relative Light Units relative to Succinylated poly-L-lysine” value ([1]; value in parentheses) is reported as 7.7 and the “rate constant for the conversion of maleamic acid to amine and anhydride” value [2] is reported as 0.087 s⁻¹. The hemolysis ([3]; 30 minutes, 37 C) was 4%, the hemolysis ([3]; post incubation at pH 5.4 30 seconds) was 85% and the “Relative Light Units (luciferase expression)” value [4] was 20927 Relative Light Units.
